How the values were obtained:
IRAK3-ePL = target: T1, IRAK3-ePL (Homo sapiens, UniProt Q9Y616); test: IRAK3-ePL overexpressing degradation assay (InCELL Hunter luminescence, dose response); format: cell-based; conditions: for IRAK3 ePL degradation Ymin: lowest percentage of target protein remaining following compound treatment; for DC50: read-out: IRAK3 ePL degradation EC50
T1 construct: expressed in transfected cells; host or cells: 293T CRBN OE/GSPT1 G575N KI cells, lentiviral transduction, puromycin selected
In short: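 Lenti-X 293T CRBN/GSPT1 G575N cells stably expressing IRAK3-ePL (5,000/well) treated overnight at 37° C with 10-point 3-fold dilutions from 10 μM, 0.2% DMSO. InCELL Hunter luminescence, background subtracted using Ataluren wells and normalized to DMSO; EC50 from four-parameter logistic fit.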

IRAK3 = target: T2, IRAK3 (Homo sapiens, UniProt Q9Y616); test: IRAK endogenous HTRF degradation assay (Total-IRAK3 HTRF kit); format: cell-based; conditions: overnight incubation, lowest percentage of protein remaining
T2 construct: IRAK Endogenous HTRF Degradation Assay; endogenous in cells
T2 sequence (Q9Y616 1-596): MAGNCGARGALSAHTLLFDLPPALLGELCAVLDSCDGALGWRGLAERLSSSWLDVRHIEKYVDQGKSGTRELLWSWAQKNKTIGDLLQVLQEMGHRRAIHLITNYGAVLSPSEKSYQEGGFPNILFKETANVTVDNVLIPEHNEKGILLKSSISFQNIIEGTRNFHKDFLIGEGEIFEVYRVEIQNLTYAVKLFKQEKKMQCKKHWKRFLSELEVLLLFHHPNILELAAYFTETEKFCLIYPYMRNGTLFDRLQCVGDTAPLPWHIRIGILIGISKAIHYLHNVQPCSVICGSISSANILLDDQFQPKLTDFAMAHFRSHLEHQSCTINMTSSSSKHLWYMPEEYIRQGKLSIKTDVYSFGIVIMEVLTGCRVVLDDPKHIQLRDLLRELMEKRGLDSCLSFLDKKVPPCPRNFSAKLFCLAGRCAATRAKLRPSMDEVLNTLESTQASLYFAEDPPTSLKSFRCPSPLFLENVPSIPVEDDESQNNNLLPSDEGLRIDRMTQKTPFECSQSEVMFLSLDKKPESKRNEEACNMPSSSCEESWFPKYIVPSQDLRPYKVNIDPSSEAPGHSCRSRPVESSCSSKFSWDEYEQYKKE
Method: Example B2. IRAK Endogenous HTRF Degradation Assay
Cells (~50 k) were plated in Cisbio 96-well low volume white plates (Cisbio: cat #66PL96005). Compounds were dissolved in DMSO and a 3-fold serial dilution was performed using a TECAN D300E. Cells were incubated with the compound overnight. Total-IRAK3 HTRF kit from Cisbio was used for degradation analysis (Cisbio: 63ADK101PEH). Cryptate and D2 antibodies were diluted in Detection buffer as per manufacturers recommendation. Then 2 μL of each solution was added to 16 μL lysate. Buffer control (lysis buffer detection buffer), Cryptate control (lysis buffer+cryptate antibody+detection buffer), and Negative control (lysis buffer+cryptate antibody+D2 antibody) were made as per manufacturers recommendation. Post incubation with antibodies the HTRF signal was measured using a Perkin Elmer Envision reader and the HTRF signal was calculated using formula: (Emission at 665 nm/Emission at 615 nm)*10,000. All HTRF values were normalized to the average value of DMSO. The average value of the DMSO control wells were set to equal 100% of the relative IRAK3 protein levels. Normalized luminescence values were plotted on a graph as a function of compound concentration. Compound concentration was plotted on the x-axis and the corresponding normalized IRAK3 protein levels on the y-axis. The EC50 value (the half-maximum effective concentration) of a compound for the degradation of the IRAK3 was calculated using a four-parameter logistic model (sigmoidal dose-response model) (FIT=(A+{(B−A)/1+[(C/x)D]})) where C is the inflection point (EC50), D is the […], and A and B are the low and high limits of the fit, respectively). The Ymin was calculated by determining the lowest percentage of target protein remaining following compound treatment. Dmax was calculated from Ymin (% Dmax=100−Ymin).
Using these assays, IC50, Dmax, EC50, and DC50 values of the following compounds were determined. Dmax is defined as the maximum percent degradation achieved and DC50 is the concentration at which 50% degradation is achieved.

SMILES	IRAK3 ePL degradation Ymin (IRAK3-ePL) [%]	DC50 (IRAK3-ePL) [nM]	IRAK3 HTRF degradation Ymin (IRAK3) [%]
Cn1cc(-c2cnc(Nc3cnn(C4CCN(CCN5CCN(c6ccc(C7CCC(=O)NC7=O)cc6)CC5)CC4)c3)c3nccn23)cn1 (stereo not drawn) [Compound 73, 3-(4-(4-(2-(4-(4-((5-(1-methyl-1H-pyrazol-4-yl)imidazo[1,2-a]pyrazin-8-yl)amino)-1H-pyrazol-1-yl)piperidin-1-yl)ethyl)piperazin-1-yl)phenyl) piperidine-2,6-dione]	24	0.51	9.1
Cc1cccc(-c2cnc(Nc3cnn([C@H]4CC[C@@H](CCN5CCN(c6ccc(C7CCC(=O)NC7=O)cc6)CC5)CC4)c3)c3nccn23)c1 (stereo partly drawn) [Compound 45, 3-(4-(4-(2-((cis)-4-(4-((5-(m-tolyl)imidazo [1,2-a]pyrazin-8-yl)amino)-1H-pyrazol-1-yl)cyclohexyl)ethyl)piperazin-1-yl)phenyl) piperidine-2,6-dione]	26	7.2	15
Cc1cc(-c2cnc(Nc3cnn([C@H]4CC[C@H](CCN5CCN(c6ccc(C7CCC(=O)NC7=O)cc6)C[C@H]5C)CC4)c3)c3nccn23)c(F)cc1F (stereo partly drawn) [Compound 37, 3-(4-((R)-4-(2-((trans)-4-(4-((5-(2,4-difluoro-5-methylphenyl)imidazo[1,2-a]pyrazin-8-yl)amino)-1H-pyrazol-1-yl)cyclohexyl)ethyl)-3-methylpiperazin-1-yl)phenyl) piperidine-2,6-dione]	20	3.8	10
Cc1cc(-c2cnc(N[C@@H]3CCN(C4CCN(CCN5CCN(c6ccc(C7CCC(=O)NC7=O)cc6)CC5)CC4)C3)c3nccn23)c(F)cc1F (stereo partly drawn) [Compound 60, 3-(4-(4-(2-(4-((R)-3-((5-(2,4-difluoro-5-methylphenyl)imdazo [1,2-a]pyrazin-8-yl)amino)pyrrolidin-1-yl)piperidin-1-yl)ethyl)piperazin-1-yl)phenyl) piperidine-2,6-dione]	92	0.51	96
Cc1cc(-c2cnc(Nc3cnn([C@@H]4CCN(CCN5CCN(c6ccc(C7CCC(=O)NC7=O)cc6)C[C@@H]5C)[C@H](C)C4)c3)c3nccn23)c(F)cc1F (stereo partly drawn) [Compound 59, 3-(4-((S)-4-(2-((2R,4R)-4-(4-((5-(2,4-difluoro-5-methylphenyl)imdazo [1,2-a]pyrazin-8-yl)amino)-1H-pyrazol-1-yl)-2-methylpiperidin-1-yl)ethyl)-3-methylpiperazin-1-yl)phenyl) piperidine-2,6-dione]	21	0.51	7.5
O=C1CCC(c2ccc(N3CCN(CCN4CCC(n5cc(Nc6ncc(-c7cc8c(cc7F)OCCN8)n7ccnc67)cn5)CC4)CC3)cc2)C(=O)N1 (stereo not drawn) [Compound 51, 3-(4-(4-(2-(4-(4-((5-(7-fluoro-3,4-dihydro-2H-benzo[b][1,4]oxazin-6-yl)imidazo[1,2-a]pyrazin-8-yl)amino)-1H-pyrazol-1-yl)piperidin-1-yl)ethyl)piperazin-1-yl)phenyl) piperidine-2,6-dione]	24	2.5	9.3
CN1CCOc2ccc(-c3cnc(Nc4cnn([C@H]5CC[C@H](CCN6CCN(c7ccc(C8CCC(=O)NC8=O)cc7)CC6)CC5)c4)c4nccn34)cc21 (stereo partly drawn) [Compound 40]	24	1.5	8.5
Cc1cc(-c2cnc(N[C@H]3CCN(C4CCN(CCN5CCN(c6ccc(C7CCC(=O)NC7=O)cc6)CC5)CC4)C3)c3nccn23)c(F)cc1F (stereo partly drawn) [Compound 65, 3-(4-(4-(2-(4-((S)-3-((5-(2,4-difluoro-5-methylphenyl)imdazo [1,2-a]pyrazin-8-yl)amino)pyrrolidin-1-yl)piperidin-1-yl)ethyl)piperazin-1-yl)phenyl) piperidine-2,6-dione]	86	3300	96
Cc1cc(-c2cnc(Nc3cnn(C4CCN(CCN5CCN(c6ccc(C7CCC(=O)NC7=O)cc6)CC5)CC4)c3)c3ncc(C)n23)c(F)cc1F (stereo not drawn) [Compound 61, 3-(4-(4-(2-(4-(4-((5-(2,4-difluoro-5-methylphenyl)-3-methylimidazo[1,2-a]pyrazin-8-yl)amino)-1H-pyrazol-1-yl)piperidin-1-yl)ethyl)piperazin-1-yl)phenyl) piperidine-2,6-dione]	41	18	20
Cc1cc(-c2cnc(Nc3cnn(C4CCN(CCN5CCN(c6ccc(C7CCC(=O)NC7=O)c(Cl)c6)CC5)CC4)c3)c3nccn23)c(F)cc1F (stereo not drawn) [Compound 54, 3-(2-chloro-4-(4-(2-(4-(4-((5-(2,4-difluoro-5-methylphenyl)imdazo [1,2-a]pyrazin-8-yl)amino)-1H-pyrazol-1-yl)piperidin-1-yl)ethyl)piperazin-1-yl)phenyl) piperidine-2,6-dione]	28	10	15
Cc1cc(-c2cnc(Nc3cnn([C@@H]4CCN(CCN5CCN(c6ccc(C7CCC(=O)NC7=O)cc6)C[C@H]5C)[C@H](C)C4)c3)c3nccn23)c(F)cc1F (stereo partly drawn) [Compound 29, 3-(4-((R)-4-(2-((2R,4R)-4-(4-((5-(2,4-difluoro-5-methylphenyl)imdazo [1,2-a]pyrazin-8-yl)amino)-1H-pyrazol-1-yl)-2-methylpiperidin-1-yl)ethyl)-3-methylpiperazin-1-yl)phenyl) piperidine-2,6-dione]	24	0.51	14
Cc1cc(-c2cnc(Nc3cnn([C@H]4CC[C@H](CCN5CCN(c6ccc(C7CCC(=O)NC7=O)cc6)C[C@@H]5C)CC4)c3)c3nccn23)c(F)cc1F (stereo partly drawn) [Compound 57, 3-(4-((S)-4-(2-((trans)-4-(4-((5-(2,4-difluoro-5-methylphenyl)imidazo[1,2-a]pyrazin-8-yl)amino)-1H-pyrazol-1-yl)cyclohexyl)ethyl)-3-methylpiperazin-1-yl)phenyl) piperidine-2,6-dione]	24	5.7	8.72
COc1cc(C2CCC(=O)NC2=O)ccc1N1CCN(CCN2CCC(n3cc(Nc4ncc(-c5cc(C)c(F)cc5F)n5ccnc45)cn3)CC2)CC1 (stereo not drawn) [Compound 42, 3-(4-(4-(2-(4-(4-((5-(2,4-difluoro-5-methylphenyl)imdazo [1,2-a]pyrazin-8-yl)amino)-1H-pyrazol-1-yl)piperidin-1-yl)ethyl)piperazin-1-yl)-3-methoxyphenyl) piperidine-2,6-dione]	23	0.51	9.8
